# From patent publication US20180110218A1, “Substrate for Controlling Flies and Other Insects, Method for Manufacturing Thereof and Use of Said Substrate as Animal Litter” (priority 2016, published 2018)
# Entries after “also recorded” stand apart in the source; their conditions may differ.
# What was measured:
# Type in all cases: in vivo
# [1] = test system: Musca domestica larvae and pupae; experiment: Test 5: mortality of M. domestica, wood shavings impregnated with cyromazine formulations on horse manure
# Description: The absorbent substrate impregnated were wood shavings of the “Great Northern” pine tree, which are the most commonly used for horse litters.
# For the effectiveness studies, the formulations for impregnating the wood shavings were applied manually by means of a container with a spray gun. Several sprayings were carried out, turning the wood shavings halfway to ensure that they were homogeneously impregnated.
# The organic matter used was rabbit excrement in the first two tests with pyriproxyfen, due to its increased availability and high infestation with fly larvae. For tests 3 and 4 with pyriproxyfen and the test carried out with cyromazine, horse excrement was used since it is the main object on which the product is applied. In both cases, manure with high levels of fly larvae infestation was selected in order to obtain a suitable number of larvae per test. […]
# In the case of the test with cyromazine, after the 5 days of exposure the dead pupae and larvae were separated. Once the adults emerged, the dead larvae, the unviable pupae and the adults that emerged (healthy and malformed) were counted in order to calculate the mortality rate for each case. […]
# [2] = test system: Musca domestica larvae and pupae; experiment: Test 1: pupal mortality of M. domestica, wood shavings impregnated with pyriproxyfen/diflubenzuron formulations on rabbit manure
# Description: (§1) The organic matter used was rabbit excrement in the first two tests with pyriproxyfen, due to its increased availability and high infestation with fly larvae. […] In both cases, manure with high levels of fly larvae infestation was selected in order to obtain a suitable number of larvae per test. […]
# (§2) In the case of the tests of litters with pyriproxyfen, after 5 days of exposure (enough time for the larvae to progress to the pupal stage), the pupae were separated in plastic cups covered with a net, waiting for the adults to emerge. Once the adults emerged, the unviable pupae and the adults that emerged (healthy and malformed) were counted in order to calculate the mortality rate for each case. […]
# [3] = test system: Musca domestica larvae and pupae; experiment: Test 4: pupal mortality of M. domestica, wood shavings impregnated with low-concentration pyriproxyfen formulations on horse manure
# Description: as §1, §2
smiles,measurement,setting,value
Nc1nc(N)nc(NC2CC2)n1 [cyromazine],effectiveness (in words),[1],effective in low doses
O=C(NC(=O)c1c(F)cccc1F)Nc1ccc(Cl)cc1 [diflubenzuron],mortality results / effectiveness (in words),[2],effective in low doses
CC(COc1ccc(Oc2ccccc2)cc1)Oc1ccccn1 (stereo not drawn) [pyriproxyfen],effectiveness as a pupicide (in words),[3],good effectiveness; also recorded: effective in low doses
